Measured values published in patent publication US7521528B2, “Conformationally constrained parathyroid hormone (PTH) analogs with lactam bridges” (The General Hospital Corporation, priority 2003, dated 2009).
“Also recorded” adds a separate entry of the source. Positions of bridges follow the written chain, without caps; N, C: chain ends. Non-standard residues stand in square brackets, D forms with d. Residues, ends and D or L forms follow the SMILES beside them. hArg = N=C(N)NCCCC[C@H](N)C(=O)O; Aib = CC(C)(N)C(=O)O

Key:
[1] = biological target: T1, recombinant full-length P1R (Homo sapiens, UniProt Q03431); experiment: cAMP stimulation in HKRK-B28 cells; format: cell-based; details: for Emax: percent of maximum response of PTH(1-14), Table 3; for capacity to stimulate cAMP formation at a single dose: 10 μM
T1 construct: expressed in transfected cells
T1 sequence (Q03431 27-593): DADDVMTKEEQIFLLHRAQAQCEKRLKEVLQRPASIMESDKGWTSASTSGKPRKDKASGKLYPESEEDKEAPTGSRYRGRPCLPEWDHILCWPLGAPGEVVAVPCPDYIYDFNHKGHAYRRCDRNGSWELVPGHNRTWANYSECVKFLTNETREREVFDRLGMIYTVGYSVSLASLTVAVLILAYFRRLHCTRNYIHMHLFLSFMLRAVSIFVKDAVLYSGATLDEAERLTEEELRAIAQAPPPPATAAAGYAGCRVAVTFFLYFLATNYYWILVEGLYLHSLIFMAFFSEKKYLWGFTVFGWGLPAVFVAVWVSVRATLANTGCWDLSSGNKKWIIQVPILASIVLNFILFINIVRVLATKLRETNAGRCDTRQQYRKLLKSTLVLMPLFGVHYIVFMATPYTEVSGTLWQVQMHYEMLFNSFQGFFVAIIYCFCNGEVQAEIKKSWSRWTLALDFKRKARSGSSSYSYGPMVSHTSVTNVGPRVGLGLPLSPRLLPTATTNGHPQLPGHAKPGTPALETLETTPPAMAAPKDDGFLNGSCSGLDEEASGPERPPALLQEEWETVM
Description: Cell Culture. The cell line HKRK-B28 (Takasu, H., et al., J. Bone Miner. Res. 14:11-20 (1999)) was derived from the porcine kidney cell line, LLC-PK1 by stable transfection with plasmid DNA encoding the full-length P1R and expresses ˜280,000 receptors per cell. These cells, as well as COS-7 cells and SaOS-2-B10 cells, were cultured at […] in T-75 flasks ([…]) in Dulbecco's modified Eagle's medium (DMEM) supplemented with fetal bovine serum (10%), penicillin G (20 units/ml), streptomycin sulfate (20 μg/ml) and amphotericin B (0.05 μg/ml) in a humidified atmosphere containing 5% CO2. Stock solutions of EGTA/trypsin and antibiotics were from GIBCO; fetal bovine serum was from Hyclone Laboratories (Logan, Utah). COS-7 cells sub-cultured in 24-well plates were transfected with plasmid DNA (200 ng per well) encoding the wild-type human P1R or truncated human P1R deleted for residues (24-181) (Shimizu, M., et al., J. Biol. Chem. 275:21836-21843 (2000)) that was purified by cesium chloride/ethidium bromide density gradient centrifugation, and FuGENE 6 transfection reagent (Roche Indianapolis Ind.) according to the manufacturer's recommended procedure. All cells, in 24-well plates, were treated with fresh media and shifted to 33° C. for 12 to 24 h prior to assay.
(§1) cAMP Stimulation. Stimulation of cells with peptide analogs was performed in 24-well plates. Cells were rinsed with 0.5 mL of binding buffer (50 mM Tris-HCl, 100 mM NaCl, 5 mM KCl, 2 mM CaCl2, 5% heat-inactivated horse serum, 0.5% fetal bovine serum, adjusted to pH 7.5 with HCl) and treated with 200 μL of cAMP assay buffer (Delbecco's modified Eagle's medium containing 2 mM 3-isobutyl-1-methylxanthine, 1 mg/mL bovine serum albumin, 35 mM Hepes-NaOH, pH 7.4) and 100 μL of binding buffer containing varying amounts of peptide analog (final volume=300 μL). The medium was removed after incubation for 30 to 60 minutes at room temperature, and the cells were frozen on dry ice, lysed with 0.5 mL 50 mM HCl, and refrozen ([…]). The cAMP content of the diluted lysate was determined by radioimmunoassay. The EC50 response values were calculated using nonlinear regression (see below).
(§2) Data Calculation. Calculations were performed using Microsoft® Excel. Nonlinear regression analyses of binding and cAMP dose-response data were performed using the four-parameter equation: yp=Min+[(Max−Min)/(1+(IC50/x)^slope)]. The Excel Solver function was utilized for parameter optimization, as described previously (Carter, P. H., et al., Endocrinology 140: 4972-4981 (1999); Bowen, W. P., and Jerman, J. C., Trends in Pharmacol. Sci. 16: 413-417 (1995)). Differences between paired data sets were statistically evaluated using a one-tailed Student's t-test, assuming unequal variances for the two sets.
The effects of installing a direct covalent linkage between the side chains of the residues at positions 6 and 10 on PTH analog function were also assessed. To do this, paired Glu^6/Lys^10 or Lys^6/Glu^10 substitutions were introduced into an otherwise non-constrained PTH(1-14) analog scaffold AlaValAlaGluIleGln LeuMetHisGlnHarAlaLysTrp-amide (SEQ. ID. NO. 11) and formed an amide bond between the carboxylate side chain group of the introduced glutamate residue and the amino side chain group of the introduced lysine residue. For controls, a portion of each Glu/Lys- or Lys/Glu-substituted PTH(1-14) analog was preserved in the non-bridged form. The four peptides: [Glu^6, Lys^10]PTH(1-14)(linear)(SEQ. ID. NO. 24), [(Glu^6,Lys^10)lac.]PTH(1-14) cyclized via a 6-10 lactam bridge)(SEQ. ID. NO. 3), [Lys^6, Glu^10]PTH(1-14)(SEQ. ID. NO. 25), and [(Lys^6, Glu^10)lac.]PTH(1-14)(SEQ. ID. NO. 26) were first compared at a single dose of 10 μM for the capacity to stimulate cAMP formulation in HKRK-B28 cells, an LLC-PK1-derived cell line that expresses the recombinant full-length P1R at a moderate level (˜280,000 receptors per cell). […]

P1R-DelNt = biological target: T2, P1R-DelNt (Homo sapiens, UniProt Q03431); experiment: cAMP stimulation in LdelNt-2 cells; format: cell-based; details: for EC50: cAMP accumulation; for Emax: percent of maximum response of PTH(1-14)
T2 construct: expressed in transfected cells
T2 sequence (Q03431 with tags, fused parts or gaps limits assumed): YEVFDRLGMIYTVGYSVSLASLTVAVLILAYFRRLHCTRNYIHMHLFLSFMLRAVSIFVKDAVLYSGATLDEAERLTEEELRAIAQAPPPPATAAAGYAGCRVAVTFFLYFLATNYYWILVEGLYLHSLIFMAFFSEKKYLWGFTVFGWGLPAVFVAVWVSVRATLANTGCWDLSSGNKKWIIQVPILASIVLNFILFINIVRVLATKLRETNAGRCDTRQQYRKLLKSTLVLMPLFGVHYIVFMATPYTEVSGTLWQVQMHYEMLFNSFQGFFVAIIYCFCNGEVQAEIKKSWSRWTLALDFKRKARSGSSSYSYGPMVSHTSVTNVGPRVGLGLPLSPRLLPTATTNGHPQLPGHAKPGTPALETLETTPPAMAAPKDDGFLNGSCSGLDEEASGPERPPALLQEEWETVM
Description: as §1, §2
The two-domain hypothesis of the PTH-P1R interaction mechanism predicts that the effects of the substitutions at positions 6 and 10 observed with the above PTH(1-11) analogs involve interactions (direct or indirect) that occur within the juxtamembrane region of the receptor. To test this hypothesis, P1R-DelNt was utilized. P1R-DeNt is a P1R construct that is deleted for most of the N domain yet which retains nearly full capacity to be expressed on the cell surface and to stimulate cAMP formation in response to N-terminal PTH analogs, and an LLC-PK1-derived cell line was herein established, LdelNt-2, which stably expresses P1R-DelNt.

Compound	Emax [1]	EC50 (P1R-DelNt)	Emax (P1R-DelNt)	further results
CC[C@H](C)[C@H](NC(=O)[C@H](CCC(=O)O)NC(=O)[C@H](C)NC(=O)[C@@H](NC(=O)[C@H](C)N)C(C)C)C(=O)N[C@@H](CCC(N)=O)C(=O)N[C@@H](CC(C)C)C(=O)N[C@@H](CCSC)C(=O)N[C@@H](Cc1c[nH]cn1)C(=O)N[C@@H](CCC(N)=O)C(=O)N[C@@H](CCCCNC(=N)N)C(=O)N[C@@H](C)C(=O)N[C@@H](CCCCN)C(=O)N[C@@H](Cc1c[nH]c2ccccc12)C(N)=O [PTH(1-14) (SEQ. ID. NO. 11), [Ala^1,3,12,Gln^10,Har^11,Trp^14]PTH(1-14)amide] (H-AVAEIQLMHQ[hArg]AKW-NH2)	100 ± 2%			maximum cAMP response observed ([1]; n=3): 359±52 picomoles of cAMP per well
CC[C@H](C)[C@H](NC(=O)[C@H](CCC(=O)O)NC(=O)[C@H](C)NC(=O)[C@@H](NC(=O)[C@H](C)N)C(C)C)C(=O)N[C@H]1CCC(=O)NCCCC[C@@H](C(=O)N[C@@H](CCCCNC(=N)N)C(=O)N[C@@H](C)C(=O)N[C@@H](CCCCN)C(=O)N[C@@H](Cc2c[nH]c3ccccc23)C(N)=O)NC(=O)[C@H](Cc2c[nH]cn2)NC(=O)[C@H](CCSC)NC(=O)[C@H](CC(C)C)NC1=O [[(Glu^6, Lys^10)lac.]PTH(1-14), AlaValAlaGluIleGluLeuMetHisLysHarAlaLysTrp cyclized via a 6-10 lactam bridge] (H-AVAEIELMHK[hArg]AKW-NH2; lactam 6-10)	52 ± 3%			capacity to stimulate cAMP formation at a single dose [1]: comparable to that of its linear counterpart
CC[C@H](C)[C@H](NC(=O)[C@H](CCC(=O)O)NC(=O)[C@H](C)NC(=O)[C@@H](NC(=O)[C@H](C)N)C(C)C)C(=O)N[C@H]1CCCCNC(=O)CC[C@@H](C(=O)N[C@@H](CCCCNC(=N)N)C(=O)N[C@@H](C)C(=O)N[C@@H](CCCCN)C(=O)N[C@@H](Cc2c[nH]c3ccccc23)C(N)=O)NC(=O)[C@H](Cc2c[nH]cn2)NC(=O)[C@H](CCSC)NC(=O)[C@H](CC(C)C)NC1=O [[(Lys^6, Glu^10)lac.]PTH(1-14)] (H-AVAEIKLMHE[hArg]AKW-NH2; lactam 6-10)	59 ± 3%			capacity to stimulate cAMP formation at a single dose [1]: more active than its linear counterpart; also recorded: significantly (P<0.0001) greater than that elicited by the linear control; potency relative to linear [Lys^6, Glu^10]PTH(1-14) ([1]; dose-response analyses): six-fold more potent
CC[C@H](C)[C@H](NC(=O)[C@H](CCC(=O)O)NC(=O)C(C)(C)NC(=O)[C@@H](NC(=O)C(C)(C)N)C(C)C)C(=O)N[C@@H](CCC(N)=O)C(=O)N[C@@H](CC(C)C)C(=O)N[C@@H](CCSC)C(=O)N[C@@H](Cc1c[nH]cn1)C(=O)N[C@@H](CCC(N)=O)C(=O)N[C@@H](CCCCNC(=N)N)C(=O)N[C@@H](C)C(=O)N[C@@H](CCCCN)C(=O)N[C@@H](Cc1c[nH]c2ccccc12)C(N)=O [[Aib]PTH(1-14), AibValAibGluIleGlnLeuMetHisGlnHarAlaLysTrp-amide] (H-[Aib]V[Aib]EIQLMHQ[hArg]AKW-NH2)		6.6 ± 1.1 nM		fold increase in cAMP formation/accumulation (P1R-DelNt): 50 fold
CC[C@H](C)[C@H](NC(=O)[C@H](CCC(=O)O)NC(=O)C(C)(C)NC(=O)[C@@H](NC(=O)C(C)(C)N)C(C)C)C(=O)N[C@@H](C)C(=O)N[C@@H](CC(C)C)C(=O)N[C@@H](CCSC)C(=O)N[C@@H](Cc1c[nH]cn1)C(=O)N[C@@H](C)C(=O)N[C@@H](CCCCNC(=N)N)C(=O)N[C@@H](C)C(=O)N[C@@H](CCCCN)C(=O)N[C@@H](Cc1c[nH]c2ccccc12)C(N)=O [[Aib^1,3, Ala^6,10]PTH(1-14)] (H-[Aib]V[Aib]EIALMHA[hArg]AKW-NH2)		24 ± 7 nM	100 ± 3%	potency relative to [Aib^1,3, Ala^6]PTH(1-14) (P1R-DelNt): six-fold higher
CC[C@H](C)[C@H](NC(=O)[C@H](CCC(=O)O)NC(=O)C(C)(C)NC(=O)[C@@H](NC(=O)C(C)(C)N)C(C)C)C(=O)N[C@@H](C)C(=O)N[C@@H](CC(C)C)C(=O)N[C@@H](CCSC)C(=O)N[C@@H](Cc1c[nH]cn1)C(=O)N[C@@H](CCC(N)=O)C(=O)N[C@@H](CCCCNC(=N)N)C(=O)N[C@@H](C)C(=O)N[C@@H](CCCCN)C(=O)N[C@@H](Cc1c[nH]c2ccccc12)C(N)=O [[Aib^1,3, Ala^6]PTH(1-14)] (H-[Aib]V[Aib]EIALMHQ[hArg]AKW-NH2)			101 ± 4%	potency weaker than parent [Aib]PTH(1-14) (P1R-DelNt): 22 fold
CC[C@H](C)[C@H](NC(=O)[C@H](CCC(=O)O)NC(=O)C(C)(C)NC(=O)[C@@H](NC(=O)C(C)(C)N)C(C)C)C(=O)N[C@@H](CCC(N)=O)C(=O)N[C@@H](CC(C)C)C(=O)N[C@@H](CCSC)C(=O)N[C@@H](Cc1c[nH]cn1)C(=O)N[C@@H](C)C(=O)N[C@@H](CCCCNC(=N)N)C(=O)N[C@@H](C)C(=O)N[C@@H](CCCCN)C(=O)N[C@@H](Cc1c[nH]c2ccccc12)C(N)=O [[Aib^1,3, Ala^10]PTH(1-14)] (H-[Aib]V[Aib]EIQLMHA[hArg]AKW-NH2)		81 ± 65 nM	104 ± 7%	potency weaker than parent [Aib]PTH(1-14) (P1R-DelNt): 12 fold
CC[C@H](C)[C@H](NC(=O)[C@H](CCC(=O)O)NC(=O)[C@H](C)NC(=O)[C@@H](NC(=O)[C@H](C)N)C(C)C)C(=O)N[C@@H](CCC(=O)O)C(=O)N[C@@H](CC(C)C)C(=O)N[C@@H](CCSC)C(=O)N[C@@H](Cc1c[nH]cn1)C(=O)N[C@@H](CCCCN)C(=O)N[C@@H](CCCCNC(=N)N)C(=O)N[C@@H](C)C(=O)N[C@@H](CCCCN)C(=O)N[C@@H](Cc1c[nH]c2ccccc12)C(N)=O [[Glu^6, Lys^10]PTH(1-14)] (H-AVAEIELMHK[hArg]AKW-NH2)	52 ± 3%			
